The results in this text go back to patent publication US20110052551A1, “CARDIAC MYOCYTE MORPHOGENIC COMPOSITIONS AND METHODS OF USE THEREFOR” (priority 2008, published 2011).

“Also recorded” adds a separate entry of the source.

Common to all, as to format: cell-based, mice
For experiment [1], the system named is JNK phosphorylation in BMMNCs. In words: Western immunoblotting of Wnt11-induced JNK phosphorylation. Particulars: 1 μM, 3 hours in Wnt11-CM. The procedure:
Assessment of Wnt signaling. To investigate non-canonical signaling pathways, freshly isolated unfractionated BMMNCs were cultured in Wnt11-CM or in empty vector (control) medium in the presence or absence of 1 μM of the PKC inhibitor bisindolylmaleimide I (BIM, Sigma) for 3 hours followed by harvest and assessment of JNK phosphorylation by Western immunoblotting (see below and FIG. 9B). The expression of cardiac-specific gene expression in unfractionated BMMNCs was assessed by qRT-PCR following culture for 3 days in Wnt11-CM and empty vector (control) medium with and without PKC (BIM; 1 μM) and JNK (SP600125; 10 μM; Sigma) inhibitors (see FIG. 9B). Expression of Wnt3a and β-catenin were measured by qRT-PCR to investigate the effect of control, Wnt3a medium, and Wnt11-CM on canonical signaling.
(§1) Western immunoblotting and quantitative ELISA. […] Gel transfer efficiency was recorded carefully by making photocopies of membranes dyed with reversible Ponceau staining; gel retention was determined by Coomassie blue staining. […] Immunoreactive bands were visualized with horseradish peroxidase-conjugated anti-goat and anti-rabbit IgG (Santa Cruz Biotechnology) using an ECL detection kit (New England Nuclear, Billerica, Mass., United States of America), quantified by densitometry, and normalized GAPDH. […]

The subject of experiment [2] is unfractionated BMMNCs. In words: qRT-PCR of Wnt11-induced cardiac gene expression with PKC and JNK inhibitors. The following applies: 3 days in Wnt11-CM, BIM 1 μM, SP600125 10 μM. As for the experimental part: Assessment of mRNA expression by quantitative real-time RT-PCR (qRT-PCR). All qRT-PCR reagents and primers were purchased from Qiagen Inc. (Valencia, Calif., United States of America). Prior to mRNA extraction, cell number was determined and calculated by Trypan blue exclusion. cDNA was generated from freshly isolated (designated as baseline) and cultured unfractionated BMMNCs at days 0, 3, 7, and 21 (see FIG. 9A) using QUANTISCRIPT REVERSE TRANSCRIPTASE™ (Qiagen Inc., Valencia, Calif., United States of America) contained in RT master mix of Cell to cDNA kits according to manufacturer's protocol. […]
To avoid amplification of contaminating DNA, all validated qRT-PCR primers were designed to cross […] sequences within the cDNA to be amplified. Quantitative qRT-PCR analysis was performed in an ABI Prism 7900H sequence detection system (Applied Biosystems, Foster City, Calif.) using QUANTITECT™ SYBR® Green Real Time PCR kits. Each 50 μl qRT-PCR reaction contained 2 μl (approximately 50 ng) of cDNA, 5 μl of 1× primer mix (containing approximately 500 nM sense and anti-sense primers) and 25 μl of 2× QUANTITECT™ SYBR® Green master mix. […]
The PCR product level is calculated from the threshold cycle (Ct). That is, the amplification cycle number at which exponential PCR-generated gene-specific fluorescence is first detected (above a fixed threshold level). […]
(In general: In qPCR the cycle at which signal appears reflects the starting amount.)

Experiment [3] relates to unfractionated BMMNCs. In words: cTnI ELISA in cultured BMMNCs. The following applies: for effect on Wnt11-induced expression of cTnI: 21 days of culture in Wnt11-CM. The procedure:
Assessment of cardiac differentiation. For quantitative assessment of cardiomyocytic differentiation, an average of 2400 cells/plate were counted. Multiple fields from all 4 quarters of the plate were systematically evaluated. The number of cells expressing cardiac-specific intracellular contractile proteins in each field was counted; the total number of cells was calculated based on nuclear staining with DAPI. In addition, cells were concomitantly stained with markers specific for various non-cardiac lineages (skeletal muscle [myogenin]; neural [nestin, GFAP]; myeloid [CD11b, Gr-1]; and others; Zuba-Surma et al., 2006). Cells were counted as positive when they were positive for cardiac-specific contractile proteins and negative for all of these markers. Thus, a rigorous method was employed to assess cardiac differentiation in vitro. The percentage of cells differentiating into cardiomyocytes was calculated as the number of cells positive for proteins divided by the total number of nuclei in the field. These experiments were performed in triplicate. As a confirmatory measure, the expression of cardiac-specific troponin I (cTnI) was determined by ELISA as described hereinbelow following culture in Wnt11-CM with and without the Wnt inhibitor Dickkopf-1 (Dkk-1; see FIG. 9C).
as §1, with “ELISA. Western analysis was performed as described in Guo et al., 1998; Brandon et al., 2000; Li et al., 2003; and Li et al., 2006.” for “ELISA.”, “GAPDH. In all samples, the content of target protein was expressed as a percentage of the controls (untreated), normalized to GAPDH.” for “GAPDH.”
For orientation: ELISA stands for enzyme-linked immunosorbent assay.

On to `CN(C)CCCn1cc(C2=C(c3c[nH]c4ccccc34)C(=O)NC2=O)c2ccccc21` [BIM, bisindolylmaleimide I], for which, in experiment [1], the “Wnt11-induced JNK phosphorylation” value is reported as “completely blocked”. The entries for the “Wnt11-induced cardiac gene expression” value with unfractionated BMMNCs [2] and in the experiment on unfractionated BMMNCs [2] (listed as bisindolylmaleimide I) were “abolished; also recorded: no expression” and “completely abolished”, respectively.

B1: Dkk-1: soluble inhibitor of canonical signaling that blocks Wnt-signaling at the cell surface (protein, UniProt O94907 32-266, looked up)
Dickkopf-related protein 1: TLNSVLNSNAIKNLPPPLGGAAGHPGSAVSAAPGILYPGGNKYQTIDNYQPYPCAEDEECGTDEYCASPTRGGDAGVQICLACRKRRKRCMRHAMCCPGNYCKNGICVSSDQNHFRGEIEETITESFGNDHSTLDGYSRRTTLSSKMYHTKGQEGSVCLRSSDCASGLCCARHFWSKICKPVLKEGQVCTKHRRKGSHGLEIFQRCYCGEGLSCRIQKDHHQASNSSRLHTCQRH
Regarding B1, the results for the “effect on Wnt11-induced expression of cTnI” value with unfractionated BMMNCs [3] and with unfractionated BMMNCs [3] (listed as Dickkopf-1) were “reduced” and “attenuated”, respectively. In addition, the “effect on cTnI expression by itself” value in the experiment with unfractionated BMMNCs [3] (21 days of culture, without Wnt11-CM) is “little effect”.
